PMC9532703, “A novel small molecule RK-019 inhibits FGFR2-amplification gastric cancer cell proliferation and induces apoptosis in vitro and in vivo” (Frontiers in Pharmacology, 2022)

Columns and labels:
Experiment in all cases: Kinase selectivity panel
Assay type in all cases: biochemical
Met(D1246H)(h) = target: T1, Met(D1246H)(h) (Homo sapiens, UniProt P08581, D1228H); conditions: read-out: Inhibition(%) @ 1 µM RK-019
T1 construct: purchased Eurofins Discovery Services (KinaseProfiler)
Description: (§1) Median-inhibitory concentration (IC50) and inhibition ratio of kinases by RK-019 was assessed by Eurofins Discovery Services (Dundee, United Kingdom) using the ATP-site competition binding assay in vitro. Firstly, gradient concentration of RK-019 against FGFRs, including FGFR1, FGFR2, FGFR3, and FGFR4, were tested. IC50 value was calculate by the GraphPad Prism software (v8.4.3, GraphPad Software, California, United States). Then, to measure the selectivity prolife of RK-019, a panel of 422 recombinant human kinases was screened at a concentration of 1 µM RK-019. Kinase MAP was drawn by webtools from Cell Signaling Technology, Inc. (www.cellsignal.com).

PASK(h) = target: T2, PASK(h) (Homo sapiens, UniProt Q96RG2); conditions: read-out: Inhibition(%) @ 1 µM RK-019
T2 construct: purchased Eurofins Discovery Services (KinaseProfiler)
Description: as §1

DYRK2(h) = target: T3, DYRK2(h) (Homo sapiens, UniProt Q92630); conditions: read-out: Inhibition(%) @ 1 µM RK-019
T3 construct: purchased Eurofins Discovery Services (KinaseProfiler)
Description: as §1

PDGFRβ(h) = target: T4, PDGFRβ(h) (Homo sapiens, UniProt P09619); conditions: read-out: Inhibition(%) @ 1 µM RK-019
T4 construct: purchased Eurofins Discovery Services (KinaseProfiler)
Description: as §1

EphB4(h) = target: T5, EphB4(h) (Homo sapiens, UniProt P54760); conditions: read-out: Inhibition(%) @ 1 µM RK-019
T5 construct: purchased Eurofins Discovery Services (KinaseProfiler)
Description: as §1

B-Raf(V599E)(h) = target: T6, B-Raf(V599E)(h) (Homo sapiens, UniProt P15056, V600E); conditions: read-out: Inhibition(%) @ 1 µM RK-019
T6 construct: purchased Eurofins Discovery Services (KinaseProfiler)
Description: as §1

CDKL3(h) = target: T7, CDKL3(h) (Homo sapiens, UniProt Q8IVW4); conditions: read-out: Inhibition(%) @ 1 µM RK-019
T7 construct: purchased Eurofins Discovery Services (KinaseProfiler)
Description: as §1

[1] = target: T8, PI3 Kinase (p110b/p85b)(m) (Mus musculus, UniProt Q8BTI9); conditions: read-out: Inhibition(%) @ 1 µM RK-019
T8 construct: purchased Eurofins Discovery Services (KinaseProfiler)
Description: as §1

Ros(h) = target: T9, Ros(h) (Homo sapiens, UniProt P08922); conditions: read-out: Inhibition(%) @ 1 µM RK-019
T9 construct: purchased Eurofins Discovery Services (KinaseProfiler)
Description: as §1

SGK3(h) = target: T10, SGK3(h) (Homo sapiens, UniProt Q96BR1); conditions: read-out: Inhibition(%) @ 1 µM RK-019
T10 construct: purchased Eurofins Discovery Services (KinaseProfiler)
Description: as §1

ROCK-II(h) = target: T11, ROCK-II(h) (Homo sapiens, UniProt O75116); conditions: read-out: Inhibition(%) @ 1 µM RK-019
T11 construct: purchased Eurofins Discovery Services (KinaseProfiler)
Description: as §1

Syk(h) = target: T12, Syk(h) (Homo sapiens, UniProt P43405); conditions: read-out: Inhibition(%) @ 1 µM RK-019
T12 construct: purchased Eurofins Discovery Services (KinaseProfiler)
Description: as §1

TYK2(h) = target: T13, TYK2(h) (Homo sapiens, UniProt P29597); conditions: read-out: Inhibition(%) @ 1 µM RK-019
T13 construct: purchased Eurofins Discovery Services (KinaseProfiler)
Description: as §1

Abl (M351T)(h) = target: T14, Abl (M351T)(h) (Homo sapiens, UniProt P00519, M351T); conditions: read-out: Inhibition(%) @ 1 µM RK-019
T14 construct: purchased Eurofins Discovery Services (KinaseProfiler)
Description: as §1

Pyk2(h) = target: T15, Pyk2(h) (Homo sapiens, UniProt Q14289); conditions: read-out: Inhibition(%) @ 1 µM RK-019
T15 construct: purchased Eurofins Discovery Services (KinaseProfiler)
Description: as §1

ACTR2(h) = target: T16, ACTR2(h) (Homo sapiens, UniProt P27037); conditions: read-out: Inhibition(%) @ 1 µM RK-019
T16 construct: purchased Eurofins Discovery Services (KinaseProfiler)
Description: as §1

Aurora-C(h) = target: T17, Aurora-C(h) (Homo sapiens, UniProt Q9UQB9); conditions: read-out: Inhibition(%) @ 1 µM RK-019
T17 construct: purchased Eurofins Discovery Services (KinaseProfiler)
Description: as §1

PKCζ(h) = target: T18, PKCζ(h) (Homo sapiens, UniProt Q05513); conditions: read-out: Inhibition(%) @ 1 µM RK-019
T18 construct: purchased Eurofins Discovery Services (KinaseProfiler)
Description: as §1

Pim-1(h) = target: T19, Pim-1(h) (Homo sapiens, UniProt P11309); conditions: read-out: Inhibition(%) @ 1 µM RK-019
T19 construct: purchased Eurofins Discovery Services (KinaseProfiler)
Description: as §1

MEKK3(h) = target: T20, MEKK3(h) (Homo sapiens, UniProt Q99759); conditions: read-out: Inhibition(%) @ 1 µM RK-019
T20 construct: purchased Eurofins Discovery Services (KinaseProfiler)
Description: as §1

[2] = target: T21, PI3 Kinase (p110b/p85a)(m) (Mus musculus, UniProt Q8BTI9); conditions: read-out: Inhibition(%) @ 1 µM RK-019
T21 construct: purchased Eurofins Discovery Services (KinaseProfiler)
Description: as §1

TAO3(h) = target: T22, TAO3(h) (Homo sapiens, UniProt Q9H2K8); conditions: read-out: Inhibition(%) @ 1 µM RK-019
T22 construct: purchased Eurofins Discovery Services (KinaseProfiler)
Description: as §1

FGFR4(h) = target: T23, FGFR4(h) (Homo sapiens, UniProt P22455)
T23 construct: purchased Eurofins Discovery Services (KinaseProfiler)
Description: as §1

DRAK1(h) = target: T24, DRAK1(h) (Homo sapiens, UniProt Q9UEE5); conditions: read-out: Inhibition(%) @ 1 µM RK-019
T24 construct: purchased Eurofins Discovery Services (KinaseProfiler)
Description: as §1

Bmx(h) = target: T25, Bmx(h) (Homo sapiens, UniProt P51813); conditions: read-out: Inhibition(%) @ 1 µM RK-019
T25 construct: purchased Eurofins Discovery Services (KinaseProfiler)
Description: as §1

PDGFRα(h) = target: T26, PDGFRα(h) (Homo sapiens, UniProt P16234); conditions: read-out: Inhibition(%) @ 1 µM RK-019
T26 construct: purchased Eurofins Discovery Services (KinaseProfiler)
Description: as §1

BTK(R28H)(h) = target: T27, BTK(R28H)(h) (Homo sapiens, UniProt Q06187, R28H); conditions: read-out: Inhibition(%) @ 1 µM RK-019
T27 construct: purchased Eurofins Discovery Services (KinaseProfiler)
Description: as §1

Met(M1268T)(h) = target: T28, Met(M1268T)(h) (Homo sapiens, UniProt P08581, M1250T); conditions: read-out: Inhibition(%) @ 1 µM RK-019
T28 construct: purchased Eurofins Discovery Services (KinaseProfiler)
Description: as §1

PKCβII(h) = target: T29, PKCβII(h) (Homo sapiens, UniProt P05771); conditions: read-out: Inhibition(%) @ 1 µM RK-019
T29 construct: purchased Eurofins Discovery Services (KinaseProfiler)
Description: as §1

PKG1β(h) = target: T30, PKG1β(h) (Homo sapiens, UniProt Q13976); conditions: read-out: Inhibition(%) @ 1 µM RK-019
T30 construct: purchased Eurofins Discovery Services (KinaseProfiler)
Description: as §1

DDR2(h) = target: T31, DDR2(h) (Homo sapiens, UniProt Q16832); conditions: read-out: Inhibition(%) @ 1 µM RK-019
T31 construct: purchased Eurofins Discovery Services (KinaseProfiler)
Description: as §1

LIMK2(h) = target: T32, LIMK2(h) (Homo sapiens, UniProt P53671); conditions: read-out: Inhibition(%) @ 1 µM RK-019
T32 construct: purchased Eurofins Discovery Services (KinaseProfiler)
Description: as §1

Axl(h) = target: T33, Axl(h) (Homo sapiens, UniProt P30530); conditions: read-out: Inhibition(%) @ 1 µM RK-019
T33 construct: purchased Eurofins Discovery Services (KinaseProfiler)
Description: as §1

ASK1(h) = target: T34, ASK1(h) (Homo sapiens, UniProt Q99683); conditions: read-out: Inhibition(%) @ 1 µM RK-019
T34 construct: purchased Eurofins Discovery Services (KinaseProfiler)
Description: as §1

Ret (V804L)(h) = target: T35, Ret (V804L)(h) (Homo sapiens, UniProt P07949, V804L); conditions: read-out: Inhibition(%) @ 1 µM RK-019
T35 construct: purchased Eurofins Discovery Services (KinaseProfiler)
Description: as §1

TRB2(h) = target: T36, TRB2(h) (Homo sapiens, UniProt Q92519); conditions: read-out: Inhibition(%) @ 1 µM RK-019
T36 construct: purchased Eurofins Discovery Services (KinaseProfiler)
Description: as §1

T23 sequence (P22455 22-802): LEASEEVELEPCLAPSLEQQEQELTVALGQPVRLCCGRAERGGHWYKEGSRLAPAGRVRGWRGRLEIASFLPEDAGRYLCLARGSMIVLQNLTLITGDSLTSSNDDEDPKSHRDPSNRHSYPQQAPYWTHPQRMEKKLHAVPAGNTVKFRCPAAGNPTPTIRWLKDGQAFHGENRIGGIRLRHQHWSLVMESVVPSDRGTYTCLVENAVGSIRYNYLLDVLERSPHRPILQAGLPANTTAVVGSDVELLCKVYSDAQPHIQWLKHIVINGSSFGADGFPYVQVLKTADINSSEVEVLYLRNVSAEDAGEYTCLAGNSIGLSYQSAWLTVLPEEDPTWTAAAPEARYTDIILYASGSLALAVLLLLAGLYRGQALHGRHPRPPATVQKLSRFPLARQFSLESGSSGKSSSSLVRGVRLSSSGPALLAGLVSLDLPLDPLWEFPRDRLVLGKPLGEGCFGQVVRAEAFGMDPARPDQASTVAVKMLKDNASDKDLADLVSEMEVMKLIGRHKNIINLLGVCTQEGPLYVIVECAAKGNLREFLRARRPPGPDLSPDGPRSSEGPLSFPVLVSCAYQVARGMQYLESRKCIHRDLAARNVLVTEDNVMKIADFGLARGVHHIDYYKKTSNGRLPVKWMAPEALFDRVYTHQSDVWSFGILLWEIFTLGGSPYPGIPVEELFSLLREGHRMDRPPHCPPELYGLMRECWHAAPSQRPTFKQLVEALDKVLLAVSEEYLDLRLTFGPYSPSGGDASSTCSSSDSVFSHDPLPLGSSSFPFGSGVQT
T2 sequence (Q96RG2 whole entry): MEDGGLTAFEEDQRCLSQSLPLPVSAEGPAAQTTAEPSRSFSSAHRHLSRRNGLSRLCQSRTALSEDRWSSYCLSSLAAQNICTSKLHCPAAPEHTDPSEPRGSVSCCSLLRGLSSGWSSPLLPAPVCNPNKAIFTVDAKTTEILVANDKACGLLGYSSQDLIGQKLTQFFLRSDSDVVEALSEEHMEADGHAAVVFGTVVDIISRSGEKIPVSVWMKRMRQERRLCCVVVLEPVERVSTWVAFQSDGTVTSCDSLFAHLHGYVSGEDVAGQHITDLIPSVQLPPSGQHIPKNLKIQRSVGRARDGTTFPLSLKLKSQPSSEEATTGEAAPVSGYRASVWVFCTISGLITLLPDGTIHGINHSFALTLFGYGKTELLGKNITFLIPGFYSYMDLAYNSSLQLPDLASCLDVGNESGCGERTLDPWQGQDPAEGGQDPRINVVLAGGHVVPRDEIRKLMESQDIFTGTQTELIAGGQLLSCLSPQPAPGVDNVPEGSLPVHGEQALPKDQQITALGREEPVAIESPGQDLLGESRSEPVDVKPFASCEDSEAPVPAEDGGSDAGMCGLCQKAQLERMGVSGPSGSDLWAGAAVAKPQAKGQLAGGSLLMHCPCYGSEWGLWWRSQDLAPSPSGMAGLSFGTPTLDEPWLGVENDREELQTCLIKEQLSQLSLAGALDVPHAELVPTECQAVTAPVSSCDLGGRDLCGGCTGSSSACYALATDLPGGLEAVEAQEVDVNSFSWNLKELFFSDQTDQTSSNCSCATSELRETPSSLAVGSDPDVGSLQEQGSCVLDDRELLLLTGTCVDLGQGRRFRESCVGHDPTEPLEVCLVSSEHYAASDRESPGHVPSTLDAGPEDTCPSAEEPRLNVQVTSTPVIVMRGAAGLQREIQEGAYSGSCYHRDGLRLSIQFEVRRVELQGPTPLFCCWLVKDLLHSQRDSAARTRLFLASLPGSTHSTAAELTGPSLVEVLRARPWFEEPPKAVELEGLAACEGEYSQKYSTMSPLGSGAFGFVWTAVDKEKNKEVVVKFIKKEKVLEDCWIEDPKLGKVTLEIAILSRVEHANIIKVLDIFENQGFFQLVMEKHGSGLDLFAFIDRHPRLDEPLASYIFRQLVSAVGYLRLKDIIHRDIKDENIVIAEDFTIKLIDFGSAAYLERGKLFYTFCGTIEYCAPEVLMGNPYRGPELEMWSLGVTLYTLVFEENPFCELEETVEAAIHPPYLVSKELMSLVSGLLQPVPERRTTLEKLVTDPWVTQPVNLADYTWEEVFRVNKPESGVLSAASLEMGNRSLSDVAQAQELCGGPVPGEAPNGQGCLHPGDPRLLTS
T20 sequence (Q99759 whole entry): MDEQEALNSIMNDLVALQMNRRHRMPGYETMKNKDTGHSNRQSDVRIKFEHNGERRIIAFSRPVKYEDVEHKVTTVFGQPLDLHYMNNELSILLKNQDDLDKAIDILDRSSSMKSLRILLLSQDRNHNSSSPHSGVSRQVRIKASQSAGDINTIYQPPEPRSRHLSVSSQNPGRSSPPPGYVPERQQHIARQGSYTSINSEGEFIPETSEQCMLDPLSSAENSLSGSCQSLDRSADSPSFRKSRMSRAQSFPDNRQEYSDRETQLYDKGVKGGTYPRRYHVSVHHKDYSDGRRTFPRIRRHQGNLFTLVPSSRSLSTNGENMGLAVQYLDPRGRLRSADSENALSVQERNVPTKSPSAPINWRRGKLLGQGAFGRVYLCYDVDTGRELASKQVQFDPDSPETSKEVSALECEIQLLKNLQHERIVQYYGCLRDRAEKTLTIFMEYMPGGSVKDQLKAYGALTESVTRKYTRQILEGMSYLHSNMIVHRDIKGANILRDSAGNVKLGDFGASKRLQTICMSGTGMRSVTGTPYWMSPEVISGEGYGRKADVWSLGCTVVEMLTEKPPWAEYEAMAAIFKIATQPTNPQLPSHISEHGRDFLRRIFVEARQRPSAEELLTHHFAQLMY
T29 sequence (P05771 1-673 isoform P05771-2): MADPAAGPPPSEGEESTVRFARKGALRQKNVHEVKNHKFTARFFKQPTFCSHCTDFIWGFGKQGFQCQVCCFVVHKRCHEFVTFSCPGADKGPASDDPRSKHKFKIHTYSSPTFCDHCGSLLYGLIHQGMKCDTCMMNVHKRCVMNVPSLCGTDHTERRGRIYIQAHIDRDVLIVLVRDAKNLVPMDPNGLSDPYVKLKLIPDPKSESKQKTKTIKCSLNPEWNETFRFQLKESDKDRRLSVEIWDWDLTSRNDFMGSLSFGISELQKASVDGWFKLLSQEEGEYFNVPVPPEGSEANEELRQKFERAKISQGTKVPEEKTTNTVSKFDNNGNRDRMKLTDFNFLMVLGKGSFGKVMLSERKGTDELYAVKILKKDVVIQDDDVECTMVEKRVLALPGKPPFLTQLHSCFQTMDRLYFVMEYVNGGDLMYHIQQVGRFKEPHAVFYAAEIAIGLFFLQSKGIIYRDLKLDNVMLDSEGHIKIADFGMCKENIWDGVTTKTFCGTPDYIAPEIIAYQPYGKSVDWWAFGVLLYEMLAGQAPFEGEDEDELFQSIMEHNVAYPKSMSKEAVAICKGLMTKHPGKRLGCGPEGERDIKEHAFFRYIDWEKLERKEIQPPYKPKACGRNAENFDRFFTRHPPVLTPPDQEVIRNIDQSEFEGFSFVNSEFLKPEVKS
T6 sequence (P15056 416-766 V600E limits assumed): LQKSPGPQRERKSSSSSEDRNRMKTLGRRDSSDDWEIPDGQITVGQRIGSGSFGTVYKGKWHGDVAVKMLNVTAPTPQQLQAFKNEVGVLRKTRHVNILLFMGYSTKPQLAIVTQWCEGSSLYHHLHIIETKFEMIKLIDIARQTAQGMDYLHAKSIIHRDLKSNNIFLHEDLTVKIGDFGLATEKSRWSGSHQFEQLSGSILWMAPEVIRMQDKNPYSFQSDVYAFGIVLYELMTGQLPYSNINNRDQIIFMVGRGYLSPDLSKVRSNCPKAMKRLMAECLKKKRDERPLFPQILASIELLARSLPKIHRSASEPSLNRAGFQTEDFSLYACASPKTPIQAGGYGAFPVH
T18 sequence (Q05513 whole entry): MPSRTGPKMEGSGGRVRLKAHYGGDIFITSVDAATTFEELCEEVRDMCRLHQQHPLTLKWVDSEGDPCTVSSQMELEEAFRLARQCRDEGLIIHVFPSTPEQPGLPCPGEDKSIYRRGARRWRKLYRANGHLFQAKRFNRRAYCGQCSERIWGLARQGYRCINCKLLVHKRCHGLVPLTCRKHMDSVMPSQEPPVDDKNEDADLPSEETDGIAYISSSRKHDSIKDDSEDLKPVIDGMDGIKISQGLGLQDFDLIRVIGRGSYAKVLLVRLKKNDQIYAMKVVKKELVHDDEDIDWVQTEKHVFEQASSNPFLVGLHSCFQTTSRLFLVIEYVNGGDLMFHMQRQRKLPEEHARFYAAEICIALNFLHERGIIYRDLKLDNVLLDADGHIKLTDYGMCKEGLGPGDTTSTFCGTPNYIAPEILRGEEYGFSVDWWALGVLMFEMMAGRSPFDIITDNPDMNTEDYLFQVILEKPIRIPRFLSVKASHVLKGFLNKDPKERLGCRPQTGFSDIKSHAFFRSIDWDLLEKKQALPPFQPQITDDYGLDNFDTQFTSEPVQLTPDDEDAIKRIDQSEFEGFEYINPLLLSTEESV
T25 sequence (P51813 whole entry): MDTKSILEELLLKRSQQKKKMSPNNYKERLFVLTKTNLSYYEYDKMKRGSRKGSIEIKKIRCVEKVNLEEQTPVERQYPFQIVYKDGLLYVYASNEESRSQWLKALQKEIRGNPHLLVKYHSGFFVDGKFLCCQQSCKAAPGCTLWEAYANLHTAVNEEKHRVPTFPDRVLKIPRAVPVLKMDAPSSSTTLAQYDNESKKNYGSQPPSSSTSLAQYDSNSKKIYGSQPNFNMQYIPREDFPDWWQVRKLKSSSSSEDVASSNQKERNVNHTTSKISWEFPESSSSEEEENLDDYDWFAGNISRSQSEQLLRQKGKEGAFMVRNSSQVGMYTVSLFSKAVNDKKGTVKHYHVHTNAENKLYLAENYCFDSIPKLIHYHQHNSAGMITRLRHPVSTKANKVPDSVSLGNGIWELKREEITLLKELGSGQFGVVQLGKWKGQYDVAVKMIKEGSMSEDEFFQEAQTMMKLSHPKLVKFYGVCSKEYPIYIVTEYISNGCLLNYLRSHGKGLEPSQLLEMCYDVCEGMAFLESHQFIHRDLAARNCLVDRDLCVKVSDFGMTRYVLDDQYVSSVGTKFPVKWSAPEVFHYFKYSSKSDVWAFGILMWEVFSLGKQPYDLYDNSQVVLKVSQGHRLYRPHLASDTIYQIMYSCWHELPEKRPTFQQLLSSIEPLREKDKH

Q: Which activity at 1 µM (Met(D1246H)(h)) does the source give for COc1cc(OC)cc(N(CCN[C@H](C)CO)c2ccc3ncc(-c4cnn(C)c4)c(=O)n3c2)c1 [RK-019, (R)-7-((3,5-dimethoxyphenyl) (2-((1-hydroxypropan-2-yl)amino)ethyl)amino)-3-(1-methyl-1H-pyrazol-4-yl)-4H-pyrido [1,2-a]pyrimidin-4-one] here?
A: Its activity at 1 µM is 89%.

Q: What about the activity at 1 µM (PASK(h)) of the same compound?
A: The activity at 1 µM was 96%.

Q: And the activity at 1 µM (DYRK2(h))?
A: The activity at 1 µM was 94%.

Q: And the activity at 1 µM (PDGFRβ(h))?
A: Its activity at 1 µM is 54%.

Q: What about the activity at 1 µM (EphB4(h)) of the same compound?
A: Its activity at 1 µM is 109%.

Q: What about the activity at 1 µM (B-Raf(V599E)(h)) of the same compound?
A: The activity at 1 µM was 70%.

Q: And the activity at 1 µM (CDKL3(h))?
A: The activity at 1 µM was 102%.

Q: What about the activity at 1 µM [1] of the same compound?
A: Its activity at 1 µM is 99%.

Q: What about the activity at 1 µM (Ros(h)) of the same compound?
A: The activity at 1 µM was 101%.

Q: And the activity at 1 µM (SGK3(h))?
A: Its activity at 1 µM is 97%.

Q: What about the activity at 1 µM (ROCK-II(h)) of the same compound?
A: The activity at 1 µM was 105%.

Q: What about the activity at 1 µM (Syk(h)) of the same compound?
A: The activity at 1 µM was 116%.

Q: What about the activity at 1 µM (TYK2(h)) of the same compound?
A: Its activity at 1 µM is 96%.

Q: What about the activity at 1 µM (Abl (M351T)(h)) of the same compound?
A: The activity at 1 µM was 34%.

Q: And the activity at 1 µM (Pyk2(h))?
A: Its activity at 1 µM is 112%.

Q: And the activity at 1 µM (ACTR2(h))?
A: The activity at 1 µM was 85%.

Q: And the activity at 1 µM (Aurora-C(h))?
A: Its activity at 1 µM is 86%.

Q: What about the activity at 1 µM (PKCζ(h)) of the same compound?
A: Its activity at 1 µM is 91%.

Q: And the activity at 1 µM (Pim-1(h))?
A: Its activity at 1 µM is 111%.

Q: What about the activity at 1 µM (MEKK3(h)) of the same compound?
A: Its activity at 1 µM is 103%.

Q: And the activity at 1 µM [2]?
A: The activity at 1 µM was 98%.

Q: What about the activity at 1 µM (TAO3(h)) of the same compound?
A: Its activity at 1 µM is 100%.

Q: And the activity at 1 µM (FGFR4(h); FGFR4(h), read-out: Inhibition(%) @ 1 µM RK-019)?
A: Its activity at 1 µM is 5%.

Q: And the inhibition at 1 µM (FGFR4(h); FGFR4, 1 µM, read-out: inhibition (hit in panel))?
A: Its inhibition at 1 µM is greater than 90%.

Q: And the activity at 1 µM (DRAK1(h))?
A: The activity at 1 µM was 95%.

Q: And the activity at 1 µM (Bmx(h))?
A: The activity at 1 µM was 64%.

Q: And the activity at 1 µM (PDGFRα(h))?
A: The activity at 1 µM was 50%.

Q: What about the activity at 1 µM (BTK(R28H)(h)) of the same compound?
A: Its activity at 1 µM is 83%.

Q: And the activity at 1 µM (Met(M1268T)(h))?
A: The activity at 1 µM was 71%.

Q: And the activity at 1 µM (PKCβII(h))?
A: Its activity at 1 µM is 111%.

Q: What about the activity at 1 µM (PKG1β(h)) of the same compound?
A: The activity at 1 µM was 103%.

Q: What about the activity at 1 µM (DDR2(h)) of the same compound?
A: Its activity at 1 µM is 109%.

Q: What about the activity at 1 µM (LIMK2(h)) of the same compound?
A: Its activity at 1 µM is 98%.

Q: And the activity at 1 µM (Axl(h))?
A: Its activity at 1 µM is 116%.

Q: And the activity at 1 µM (ASK1(h))?
A: Its activity at 1 µM is 118%.

Q: What about the activity at 1 µM (Ret (V804L)(h)) of the same compound?
A: The activity at 1 µM was 92%.

Q: What about the activity at 1 µM (TRB2(h)) of the same compound?
A: Its activity at 1 µM is 136%.
